This is an account of results in patent US8802678B2, “Carbonylated (aza) cyclohexanes as dopamine D3 receptor ligands” (Bioprojet, priority 2006, dated 2014).

As to `N#CCCCC(=O)N[C@H]1CC[C@H](CCN2CCN(c3cccc(OC(F)(F)F)c3)CC2)CC1` [Example 206, 4-Cyano-N-(4-{2-[4-(3-trifluoromethoxyphenyl)piperazin-1-yl]ethyl}cyclohexyl)butanamide], the melting point was in the range of 133 to 134 °C.

Turning to `N#CCCCC(=O)N[C@H]1CC[C@H](CCN2CCN(c3cc(C(F)(F)F)ccc3F)CC2)CC1` [Example 207, 4-Cyano-N-(4-{2-[4-(2-fluoro-5-trifluoromethylphenyl)piperazin-1-yl]ethyl}cyclohexyl)butanamide], the melting point is 138 to 139 °C. Next, `N#CCC(=O)N[C@H]1CC[C@H](CCN2CCN(c3cccc(F)c3C#N)CC2)CC1` [Example 208]: 187 to 189 °C; `N#CCCCC(=O)N[C@H]1CC[C@H](CCN2CCN(c3cccc4c3CCCC4)CC2)CC1` [Example 209, 4-Cyano-N-(4-{2-[4-(5,6,7,8-tetrahydronaphthalen-1-yl)piperazin-1-yl]ethyl}cyclohexyl)butanamide]: 148 °C. The figure for `N#CCCCC(=O)N[C@H]1CC[C@H](CCN2CCN(c3cccc(Cl)c3Cl)CC2)CC1` [Example 210, 4-Cyano-N-(4-{2-[4-(2,3-dichlorophenyl)piperazin-1-yl]ethyl}cyclohexyl)butanamide] is 192 °C; for `N#CCC(=O)N[C@H]1CC[C@H](CCN2CCN(c3ccc4c(c3)CCCC4)CC2)CC1` [Example 211, 2-Cyano-N-(4-{2-[4-(5,6,7,8-tetrahydronaphthalen-2-yl)piperazin-1-yl]ethyl}cyclohexyl)acetamide] it is 200 °C; for `N#CCC(=O)N[C@H]1CC[C@H](CCN2CCN(c3ccc4c(c3)CCC4)CC2)CC1` [Example 212, 2-Cyano-N-{4-[2-(4-indan-5-ylpiperazin-1-yl)ethyl]cyclohexyl}acetamide] it is 210 °C.

`N#CCCC(=O)N[C@H]1CC[C@H](CCN2CCN(c3cc(C(F)(F)F)cc(C(F)(F)F)c3)CC2)CC1` [Example 213, N-(4-{2-[4-(3,5-Bistrifluoromethylphenyl)piperazin-1-yl]ethyl}cyclohexyl)-3-cyanopropanamide] came in with a melting point of 158 to 159 °C. The figure for `N#CCCC(=O)N[C@H]1CC[C@H](CCN2CCN(c3cccc(C(F)(F)F)c3F)CC2)CC1` [Example 214, 3-Cyano-N-(4-{2-[4-(2-fluoro-3-trifluoromethylphenyl)piperazin-1-yl]ethyl}cyclohexyl)propanamide trans/cis 95/5] is 153 °C; for `COc1c(Cl)cccc1N1CCN(CC[C@H]2CC[C@H](NC(=O)CC#N)CC2)CC1` [Example 215, N-(4-{2-[4-(3-Chloro-2-methoxyphenyl)piperazin-1-yl]ethyl}cyclohexyl)-2-cyanoacetamide] it is 122 °C. Consider `N#CCC(=O)N[C@H]1CC[C@H](CCN2CCN(c3cccc(Cc4ccccc4)c3)CC2)CC1` [Example 216, N-(4-{2-[4-(3-Benzylphenyl)-piperazin-1-yl]ethyl}cyclohexyl)-2-cyanoacetamide], for which the melting point is 168 °C. The figure for `CCOC(=O)Nc1cccc(N2CCN(CC[C@H]3CC[C@H](NC(=O)CC#N)CC3)CC2)c1` [Example 217, [3-(4-{2-[4-(2-Cyanoacetylamino)cyclohexyl]ethyl}piperazin-1-yl)phenyl] carbamic acid ethyl ester] is 170 °C. The figure for `N#CCC(=O)N[C@H]1CC[C@H](CCN2CCC(c3cccc(C(F)(F)F)c3)CC2)CC1` [Example 218, 2-Cyano-N-(4-{2-[4-(3-trifluoromethylphenyl)piperidin-1-yl]ethyl}cyclohexyl)acetamide] is 129 °C; for `Cc1cccc(N2CCN(CC[C@H]3CC[C@H](NC(=O)CC#N)CC3)CC2)c1C` [Example 219, 2-Cyano-N-(4-{2-[4-(2,3-dimethylphenyl)piperazin-1-yl]ethyl}cyclohexyl)acetamide] it is 166 °C. The figure for `Cc1ccccc1N1CCN(CC[C@H]2CC[C@H](NC(=O)CC#N)CC2)CC1` [Example 220, 2-Cyano-N-{4-[2-(4-o-tolylpiperazin-1-yl)ethyl]cyclohexyl}acetamide] is 150 °C; for `COc1ccc(OC)c(N2CCN(CC[C@H]3CC[C@H](NC(=O)CC#N)CC3)CC2)c1` [Example 221, 2-Cyano-N-(4-{2-[4-(2,5-dimethoxyphenyl)piperazin-1-yl]ethyl}cyclohexyl)acetamide] it is 171 to 173 °C. Regarding `CC(=O)CCC(=O)N[C@H]1CC[C@H](CCN2CCN(c3cc(C(F)(F)F)cc(C(F)(F)F)c3)CC2)CC1` [Example 222, 4-Oxopentanoic acid (4-{2-[4-(3,5-bis-trifluoromethylphenyl)piperazin-1-yl]ethyl}cyclohexyl)amide], the melting point lay in the range of 172 to 174 °C. `CN(C)CCCC(=O)N[C@H]1CC[C@H](CCN2CCN(c3cccc(C(F)(F)F)c3)CC2)CC1` [Example 223, 4-Dimethylamino-N-(4-{2-[4-(3-trifluoromethylphenyl)piperazin-1-yl]ethyl}cyclohexyl)butanamide] displayed a melting point of 128 °C. `O=C(COc1ccc(F)cc1)N[C@H]1CC[C@H](CCN2CCN(c3cccc(C(F)(F)F)c3)CC2)CC1` [Example 224, 2-(4-Fluorophenoxy)-N-(4-{2-[4-(3-trifluoromethylphenyl)-piperazin-1-yl]ethyl}cyclohexyl)-acetamide] had a melting point of 119 °C.

Regarding `N#CCC(=O)N[C@H]1CC[C@H](CCN2CCN(c3cc(F)ccc3F)CC2)CC1` [Example 226, 2-Cyano-N-(4-{2-[4-(2,5-difluorophenyl)piperazin-1-yl]ethyl}cyclohexyl)acetamide], the melting point worked out at 198 °C. The figure for `Cc1ccc(Cl)c(N2CCN(CC[C@H]3CC[C@H](NC(=O)CC#N)CC3)CC2)c1` [Example 227, N-(4-{2-[4-(2-Chloro-5-methylphenyl)piperazin-1-yl]ethyl}cyclohexyl)-2-cyanoacetamide] is 174 °C. The figure for `N#CCC(=O)N[C@H]1CC[C@H](CCN2CCN(c3cc(Cl)ccc3Cl)CC2)CC1` [Example 228, 2-Cyano-N-(4-{2-[4-(2,5-dichlorophenyl)piperazin-1-yl]ethyl}cyclohexyl)acetamide] is 182 to 184 °C; for `N#CCCCC(=O)N[C@H]1CC[C@H](CCN2CCN(c3cccc(Cl)c3)CC2)CC1` [Example 229, N-(4-{2-[4-(3-Chlorophenyl)-piperazin-1-yl]ethyl}cyclohexyl)-4-cyanobutanamide] it is 171 to 173 °C; for `Cc1c(N2CCN(CC[C@H]3CC[C@H](NC(=O)CCCC#N)CC3)CC2)cccc1C(F)(F)F` [Example 230, 4-Cyano-N-(4-{2-[4-(2-methyl-3-trifluoromethylphenyl)piperazin-1-yl]ethyl}cyclohexyl)butanamide] it is 162 °C. The figure for `CC(=O)CCC(=O)N[C@H]1CC[C@H](CCN2CCN(c3cccc(C(F)(F)F)c3F)CC2)CC1` [Example 231, 4-Oxopentanoic acid (4-{2-[4-(2-fluoro-3-trifluoromethyl-phenyl)piperazin-1-yl]ethyl}cyclohexyl)amide] is 178 °C; for `CC(C)(C)c1cc(N2CCN(CC[C@H]3CC[C@H](NC(=O)CC#N)CC3)CC2)cc(C(C)(C)C)c1` [Example 232, 2-Cyano-N-(4-{2-[4-(3,5-di-tert-butylphenyl)piperazin-1-yl]ethyl}cyclohexyl)acetamide] it is 168 °C. On to `N#CCCCC(=O)N[C@H]1CC[C@H](CCN2CCN(c3ccccc3Cl)CC2)CC1` [Example 233, N-(4-{2-[4-(2-Chlorophenyl)piperazin-1-yl]ethyl}cyclohexyl)-4-cyanobutanamide], for which the melting point was 142 °C. The figure for `Cc1cccc(N2CCN(CC[C@H]3CC[C@H](NC(=O)CCCC#N)CC3)CC2)c1` [Example 234, 4-Cyano-N-{4-[2-(4-m-tolylpiperazin-1-yl)ethyl]cyclohexyl}butanamide] is 150 °C; for `Cc1cccc(N2CCN(CC[C@H]3CC[C@H](NC(=O)CC(F)(F)F)CC3)CC2)c1` [Example 235, 3,3,3-Trifluoro-N-{4-[2-(4-m-tolylpiperazin-1-yl)ethyl]cyclohexyl}propanamide] it is 170 °C.

For the compound `CSc1ccccc1N1CCN(CC[C@H]2CC[C@H](NC(=O)CCCC#N)CC2)CC1` [Example 236, 4-Cyano-N-(4-{2-[4-(2-methylsulfanylphenyl)piperazin-1-yl]ethyl}cyclohexyl)butanamide], the melting point was determined as 130 °C.

`N#CCC(=O)N[C@H]1CC[C@H](CCN2CCN(c3cccc4cccnc34)CC2)CC1` [Example 237, 2-Cyano-N-{4-[2-(4-quinolin-8-ylpiperazin-1-yl)ethyl]-cyclohexyl}acetamide]: the melting point was 225 °C. The figure for `CSc1cccc(N2CCN(CC[C@H]3CC[C@H](NC(=O)CCCC#N)CC3)CC2)c1` [Example 238, 4-Cyano-N-(4-{2-[4-(3-methylsulfanylphenyl)piperazin-1-yl]ethyl}cyclohexyl)butanamide] is 127 °C; for `N#CCC(=O)N[C@H]1CC[C@H](CCN2CCN(c3cccc4ncccc34)CC2)CC1` [Example 239, 2-Cyano-N-{4-[2-(4-quinolin-5-ylpiperazin-1-yl)ethyl]cyclohexyl}acetamide] it is 220 °C. Next, `CS(=O)(=O)Nc1cccc(N2CCN(CC[C@H]3CC[C@H](NC(=O)CC#N)CC3)CC2)c1` [Example 240, 2-Cyano-N-(4-{2-[4-(3-methanesulfonylaminophenyl)piperazin-1-yl]ethyl}cyclohexyl)-acetamide]: 194 °C; `N#CCC(=O)N[C@H]1CC[C@H](CCN2CCN(c3ccc(F)cc3)CC2)CC1` [Example 241, 2-Cyano-N-(4-{2-[4-(4-fluoro-phenyl)piperazin-1-yl]ethyl}cyclohexyl)acetamide]: 209 °C; `Cc1ccc(N2CCN(CC[C@H]3CC[C@H](NC(=O)CC#N)CC3)CC2)cc1` [Example 242, 2-Cyano-N-{4-[2-(4-p-tolylpiperazin-1-yl)ethyl]cyclohexyl}acetamide]: 237 °C.

The melting point is the temperature, or range, at which the solid turns liquid.
